Assays:
Test in all cases: relative viability (nuclei count vs DMSO), 5 days (fraction); higher = more cells survive
[1] = compound: COC1=CC=C(C=C1)COC2=C(C=C(C=C2)CC3=CN=C(N=C3N)N)OC [GW-2580] + COc1cccc2cc(-c3nc([C@H]4CC[C@H](C(=O)O)CC4)n4ncnc(N)c34)[nH]c12 [OSI-027] (partner 0.5 µM)
Method in brief: (§1)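 Relative viability was taken as the ratio of nuclei in treated wells to nuclei in vehicle wells. Lung cancer cell lines in 1536-well plates received compounds by pin tool one day after seeding, either one drug alone or a fixed anchor-drug dose plus five library-drug doses (not always all listed) in √10 steps. Nuclei were counted on 4× images after 5 days of treatment, and values are medians of duplicate plates.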

[2] = compound: Cc1cnc(Nc2ccc(OCCN3CCCC3)cc2)nc1Nc1cccc(S(=O)(=O)NC(C)(C)C)c1 [Fedratinib] + CS(=O)(=O)CCNCc1ccc(-c2ccc3ncnc(Nc4ccc(OCc5cccc(F)c5)c(Cl)c4)c3c2)o1 [Lapatinib] (partner 2 µM)
Method in brief: as §1

[3] = compound: Cc1cnc(Nc2ccc(OCCN3CCCC3)cc2)nc1Nc1cccc(S(=O)(=O)NC(C)(C)C)c1 [Fedratinib] + CC(=O)c1c(C)c2cnc(Nc3ccc(N4CCNCC4)cn3)nc2n(C2CCCC2)c1=O [Palbociclib] (partner 0.5 µM)
Method in brief: as §1

[4] = compound: Cc1cnc(Nc2ccc(OCCN3CCCC3)cc2)nc1Nc1cccc(S(=O)(=O)NC(C)(C)C)c1 [Fedratinib] + NC(=O)Nc1cc(-c2cccc(F)c2)sc1C(=O)N[C@H]1CCCNC1 [AZD7762] (partner 0.2 µM)
Method in brief: as §1

[5] = compound: COC1=CC=C(C=C1)COC2=C(C=C(C=C2)CC3=CN=C(N=C3N)N)OC [GW-2580] + Cc1nc(NC(=O)N2CCC[C@H]2C(N)=O)sc1-c1ccnc(C(C)(C)C(F)(F)F)c1 [Alpelisib] (partner 2 µM)
Method in brief: as §1

[6] = compound: Cc1cnc(Nc2ccc(OCCN3CCCC3)cc2)nc1Nc1cccc(S(=O)(=O)NC(C)(C)C)c1 [Fedratinib] + CC(C)C[C@H](NC(=O)[C@H](Cc1ccccc1)NC(=O)c1cnccn1)B(O)O [Bortezomib] (partner 0.002 µM)
Method in brief: as §1

| Cell Line | relative viability ([1]; first compound 0.08 µM) | relative viability ([1]; first compound 0.8 µM) | relative viability ([1]; first compound 2.53 µM) | relative viability ([1]; first compound 8 µM) | relative viability ([2]; first compound 0.1 µM) | relative viability ([2]; first compound 0.3162 µM) | relative viability ([2]; first compound 1 µM) | relative viability ([3]; first compound 0.1 µM) | relative viability ([3]; first compound 0.3162 µM) | relative viability ([3]; first compound 1 µM) | relative viability ([4]; first compound 0.1 µM) | relative viability ([4]; first compound 0.3162 µM) | relative viability ([4]; first compound 1 µM) | relative viability ([5]; first compound 0.08 µM) | relative viability ([5]; first compound 0.8 µM) | relative viability ([5]; first compound 2.53 µM) | relative viability ([5]; first compound 8 µM) | relative viability ([6]; first compound 0.1 µM) | relative viability ([6]; first compound 0.3162 µM) | relative viability ([6]; first compound 1 µM) |
| --- | --- | --- | --- | --- | --- | --- | --- | --- | --- | --- | --- | --- | --- | --- | --- | --- | --- | --- | --- | --- |
| HCC-366 | 0.944 | 1.13 | 0.894 | 0.818 | 1.34 | 0.989 | 0.304 | 0.603 | 0.355 | 0.315 | 0.326 | 0.234 | 0.188 | 0.367 | 0.575 | 0.43 | 0.355 | 1.22 | 1 | 0.174 |
| PC-3 [JPC-3] | 0.75 | 0.985 | 0.721 | 0.724 | 0.422 | 0.446 | 0.412 | 0.481 | 0.523 | 0.542 | 0.775 | 0.976 | 0.668 | 1.05 | 1.09 | 0.998 | 1.01 | 0.796 | 0.781 | 0.869 |
| LC-2-ad | 0.88 | 0.867 | 0.87 | 0.78 | 1.06 | 0.983 | 0.104 | 0.535 | 0.486 | 0.476 | 0.829 | 0.863 | 0.818 | 0.934 | 0.932 | 0.875 | 0.87 | 1.04 | 0.96 | 0.0819 |
| CAL-12T | 0.609 | 0.853 | 0.526 | 0.699 | 0.688 | 0.698 | 0.607 | 0.295 | 0.411 | 0.446 | 0.594 | 0.618 | 0.666 | 1.45 |  | 1.19 | 1.06 | 0.963 | 1.07 | 0.805 |
| RERF-LC-KJ | 0.584 | 0.606 | 0.501 | 0.484 | 0.879 | 0.844 | 0.838 | 1.01 | 1.05 | 1.02 | 0.895 | 0.918 | 0.953 | 0.771 | 0.803 | 0.732 | 0.793 | 1.06 | 1.16 | 1.05 |
| BEN | 0.281 | 0.273 | 0.267 | 0.31 | 0.665 | 0.585 | 0.543 | 0.473 | 0.429 | 0.471 | 0.623 | 0.553 | 0.568 | 0.996 | 1.07 | 1.04 | 1.03 | 0.673 | 0.607 | 0.559 |
| EMC-BAC-2 | 0.364 | 0.384 | 0.364 | 0.337 | 1 | 0.901 | 0.909 | 0.533 | 0.503 | 0.489 | 1.16 | 1.1 | 0.912 | 0.834 | 0.777 | 0.686 | 0.787 | 1.14 | 1.01 | 1.09 |
| LU99A | 0.294 | 0.263 | 0.306 | 0.34 | 1.08 | 0.988 | 0.321 | 0.469 | 0.382 | 0.392 | 0.322 | 0.325 | 0.272 | 0.496 | 0.522 | 0.354 | 0.528 | 1.12 | 1.14 | 0.466 |
| ABC-1 | 0.471 | 0.533 | 0.502 | 0.53 | 1.28 | 1.16 | 1.46 | 0.691 | 0.704 | 0.609 | 0.741 | 0.877 | 0.792 | 1.36 | 0.944 | 0.93 | 0.891 | 0.339 | 0.363 | 0.186 |
| NCI-H2347 | 0.341 | 0.364 | 0.371 | 0.433 | 1.03 | 0.998 | 0.882 | 0.37 | 0.426 | 0.391 | 0.757 | 0.645 | 0.857 | 1.02 | 0.968 | 0.915 | 1.05 | 0.82 | 0.874 | 0.722 |
| NCI-H1993 | 0.656 | 0.559 | 0.55 | 0.561 | 0.725 | 0.82 | 0.608 | 0.654 | 0.63 | 0.906 | 0.816 | 0.694 | 0.688 | 0.684 | 0.677 |  | 0.704 | 0.993 | 0.979 | 0.48 |
| NCI-H322M | 0.528 | 0.562 | 0.634 | 0.538 | 0.608 | 0.615 | 0.523 | 0.487 | 0.473 | 0.454 | 0.596 | 0.591 | 0.414 | 0.833 | 0.912 | 0.855 | 0.795 | 1.19 | 1.16 | 1.06 |
| NCI-H838 | 0.413 | 0.428 | 0.472 | 0.431 | 0.875 | 1.02 | 0.205 | 0.197 | 0.228 | 0.164 | 0.961 | 0.913 | 0.906 | 1.01 | 1.06 | 1.15 | 1.07 | 0.588 | 0.808 | 0.208 |
| HARA | 0.504 | 0.452 | 0.491 | 0.395 | 0.75 | 0.627 | 0.384 | 0.261 | 0.301 | 0.214 | 0.429 | 0.28 | 0.23 | 0.958 | 0.927 | 0.578 | 0.8 | 1.41 | 1.18 | 0.404 |
| NCI-H2087 | 0.681 | 0.675 | 0.564 | 0.588 | 1.25 | 1.31 | 0.303 | 0.23 | 0.24 | 0.258 | 1.39 | 1.37 | 1.42 | 1.23 | 0.999 | 1.02 | 0.613 | 0.806 | 0.754 | 0.259 |
